The test system of data set [1] is Escherichia coli NIHJ JC 2. Briefly: Antibacterial activity in vitro (MIC), agar plate dilution method. In kind it is cell-based. Conditions: NIHJJC2, Mueller Hinton agar, 10^6 cells/ml, 37° C., 20 hours. Here is the method: (§1) Antibacterial activity in vitro was determined in accordance with the agar plate dilution method.
(§2) A platinum loop each of test bacteria (10^6 cells/ml), cultured in Mueller Hinton broth, was inoculated on Mueller Hinton agar plates which contained test compounds at various concentrations. After cultivating at 37° C. for 20 hours, the minimum inhibitory concentration (MIC μg/ml) was determined.

Data set [2] concerns Serratia marcescens IFO 3759. Described as above. Format: cell-based. The method, then:
as §1, §2

Data set [3] concerns Klebsiella pneumoniae IFO 3317. The data set is described as above. Format: cell-based. Here is the method:
as §1, §2

The subject of data set [4] is Pseudomonas aeruginosa 34. The description is as above. In kind it is cell-based. Here is the method: as §1, §2
In another data set the test system is Enterobacter 8. Briefly: Protection against systemic bacterial infection in ICR mice (ED50). In kind it is in vivo. Conditions: 168 h. The method, then:
(§3) Protection ability against systemic bacterial infection was determined as follows. An aqueous suspension of test bacteria was intraperitoneally injected into 10 four week old ICR mice. One hour after the infection, test compounds were intravenously administered. The number of surviving mice was counted 1 week after injection to determine the dose at which 50% of the test animals were alive (ED50 : mg/kg).

Another data set relates to Serratia marcescens 274. The data set is described as above. Format: in vivo. Conditions: 168 h. The method, then: as §3
The subject of data set [5] is Pseudomonas aeruginosa IFO 3445. Described as above. In kind it is in vivo. Conditions: IFO3445, iv, 168 h. Here is the method:
as §3

For a further data set, the system named is Escherichia coli 67. Described as above. Format: in vivo. Conditions: iv, 168 h, Escherichia coli 67, i.p. infection, compound i.v. one hour after infection, survival 1 week. The method, then: as §3
The subject of data set [6] is Klebsiella pneumoniae IFO 3317. Described as above. Conditions: IFO3317, iv, 168 h. Format: in vivo. The method, then:
as §3

Data set [7] deals with Pseudomonas aeruginosa 34. The data set is described as above. Conditions: 168 h. In kind it is in vivo. Here is the method:
as §3

The subject of data set [8] is Staphylococcus aureus 209P. Briefly: Antibacterial activity in vitro (MIC), agar plate dilution method. In kind it is cell-based. Conditions: Mueller Hinton agar, 10^6 cells/ml, 37° C., 20 hours. The method, then:
as §1, §2

Another data set can be described thus: LD50, Probit method. Conditions: in vivo, iv. The method, then: Next, LD50 of representative examples of the compounds of the present invention is shown in Table 3 wherein LD50 was determined in accordance with the Probit method.
For the next data set, the system named is Staphylococcus aureus 4. Briefly: Protection against systemic bacterial infection in ICR mice (ED50). In kind it is in vivo. Conditions: iv, 168 h, Staphylococcus aureus 4 (methicillin-resistant strain), i.p. infection, compound i.v. one hour after infection, survival 1 week. Here is the method: as §3
The next data set concerns Staphylococcus aureus 58. The description is as above. Conditions: iv, 168 h, Staphylococcus aureus 58 (methicillin-resistant strain), i.p. infection, compound i.v. one hour after infection, survival 1 week. Format: in vivo. The method, then: as §3
Where [9] appears, read: IFO3759, Serratia marcescens IFO 3759, Mueller Hinton agar, 10^6 cells/ml, 37° C., 20 hours, read-out: MIC.
Setting [10] is: IFO3317, Klebsiella pneumoniae IFO 3317, Mueller Hinton agar, 10^6 cells/ml, 37° C., 20 hours, read-out: MIC.
Setting [11] is: iv, Serratia marcescens 274, i.p. infection, ICR mice, compound i.v. one hour after infection, survival 1 week, read-out: ED50.
[12] abbreviates: iv, Pseudomonas aeruginosa 34, i.p. infection, ICR mice, compound i.v. one hour after infection, survival 1 week, read-out: ED50.
[13] abbreviates: Pseudomonas aeruginosa 34, Mueller Hinton agar, 10^6 cells/ml, 37° C., 20 hours, read-out: MIC.
[14] abbreviates: iv, Enterobacter 8, i.p. infection, ICR mice, compound i.v. one hour after infection, survival 1 week, read-out: ED50.
Where [15] appears, read: Pseudomonas aeruginosa IFO 3445, i.p. infection, ICR mice, compound i.v. one hour after infection, survival 1 week, read-out: ED50.
The mark [16] stands for this setting: Klebsiella pneumoniae IFO 3317, i.p. infection, ICR mice, compound i.v. one hour after infection, survival 1 week, read-out: ED50.

In brackets after ≈: the same amount, converted by molar mass. Like-named read-outs stand apart in the source and are kept apart here.

On to `CC(C)(O/N=C(\C(=O)N[C@@H]1C(=O)N2C(C(=O)[O-])=C(C[n+]3ccccc3)CS[C@H]12)c1csc(N)n1)C(=O)O` [CAZ, Ceftazidime, reference compound], for which the MIC in [1] is 0.2 µg/mL (≈ 0.366 µM); in [2] (Serratia marcescens, IFO3759, 20 h), less than 0.05 µg/mL; in [3] (Klebsiella pneumoniae, IFO3317, 20 h) it was less than 0.05 µg/mL; in [4] (Pseudomonas aeruginosa, 34, 20 h), 3.13 µg/mL (≈ 5.73 µM). In addition, the ED50 amounted to 4.36 mg/kg with Enterobacter 8 (Enterobacter, 8, iv); 3.62 mg/kg in the data set with Serratia marcescens 274 (Serratia marcescens, 274, iv); 230 mg/kg in data set [5] (Pseudomonas aeruginosa); 2.8 mg/kg in the data set on Escherichia coli 67; 1.73 mg/kg in data set [6] (Klebsiella pneumoniae); 123 mg/kg in [7] (Pseudomonas aeruginosa, 34, iv).
For `Cc1cc(SCC2=C(C(=O)O)N3C(=O)[C@@H](NC(=O)/C(=N\OCc4ccc(C(=O)O)c(O)c4O)c4csc(N)n4)[C@H]3SC2)n2nc(C(=O)O)nc2n1` [Compound 5, (6R,7R)-7-[2-(2-amino-4-thiazolyl)-2-[Z-[(4-carboxy-2,3-dihydroxyphenyl)methyl]oxyimino]acetamido]-3-[(2-carboxy-5-methyl-s-triazolo[1,5-a]pyrimidin-7-yl)thiomethyl]-8-oxo-5-thia-1-azabicyclo[4.2.0]oct-2-ene-2-carboxylic acid], the MIC came to 3.13 µg/mL (≈ 4.13 µM) in data set [8], 0.78 µg/mL (≈ 1.03 µM) in data set [1], 0.78 µg/mL (≈ 1.03 µM) in data set [2] (setting [9]) and 0.05 µg/mL (≈ 0.066 µM) in data set [3] (setting [10]). The LD50 in the data set “LD50, Probit method” was more than 4000 mg/kg. In addition, the ED50 in the data set with Staphylococcus aureus 4 turned out to be 4.21 mg/kg; in the data set with Serratia marcescens 274 (setting [11]), 0.75 mg/kg; in data set [7] (setting [12]), 81.2 mg/kg.
For `Cc1cc(SCC2=C(C(=O)O)N3C(=O)[C@@H](NC(=O)/C(=N\OCc4cc(C(=O)O)cc(O)c4O)c4csc(N)n4)[C@H]3SC2)n2nc(C(=O)O)nc2n1` [Compound 2, (6R,7R)-7-[2-(2-amino-4-thiazolyl)-2-[Z-[(5-carboxy-2,3-dihydroxyphenyl)methyl]oxyimino]acetamido]-3-[(2-carboxy-5-methyl-s-triazolo[1,5-a]pyrimidin-7-yl)thiomethyl]-8-oxo-5-thia-1-azabicyclo[4.2.0]oct-2-ene-2-carboxylic acid], the MIC in data set [8] was 6.25 µg/mL (≈ 8.25 µM); in data set [1] it was 0.39 µg/mL (≈ 0.515 µM); in data set [2] (setting [9]), 0.1 µg/mL (≈ 0.132 µM); in data set [3] (setting [10]), 0.05 µg/mL (≈ 0.066 µM); in data set [4] (setting [13]), 0.2 µg/mL (≈ 0.264 µM). The compound also gave an LD50 in “LD50, Probit method” of more than 4000 mg/kg. For the same compound, the ED50 was 1.31 mg/kg in the data set with Enterobacter 8 (setting [14]); 0.55 mg/kg with Serratia marcescens 274 (setting [11]); 33.7 mg/kg in data set [5] (setting [15]); 9.65 mg/kg in the data set with Staphylococcus aureus 58; 1.1 mg/kg with Escherichia coli 67; 0.34 mg/kg in data set [6] (setting [16]).
Take `Cn1nnnc1SCC1=C(C(=O)O)N2C(=O)[C@@H](NC(=O)[C@H](O)c3ccccc3)[C@H]2SC1` [CMD, Cefamandole, reference compound]: the ED50 was found to be 5.94 mg/kg with Staphylococcus aureus 4 and 18.9 mg/kg in the data set on Staphylococcus aureus 58.
Turning to `Cc1cc(SCC2=C(C(=O)O)N3C(=O)[C@@H](NC(=O)/C(=N\OCc4c(C(=O)O)ccc(O)c4O)c4csc(N)n4)[C@H]3SC2)n2nc(C(=O)O)nc2n1` [Compound 1, (6R,7R)-7-[2-(2-amino-4-thiazolyl)-2-[Z-[(6-carboxy-2,3-dihydroxyphenyl)methyl]oxyimino]acetamido]-3-[(2-carboxy-5-methyl-s-triazolo[1,5-a]pyrimidin-7-yl)thiomethyl]-8-oxo-5-thia-1-azabicyclo[4.2.0]oct-2-ene-2-carboxylic acid], the MIC in data set [8] is 6.25 µg/mL (≈ 8.25 µM); in data set [1], 0.78 µg/mL (≈ 1.03 µM); in [2] (setting [9]), 0.39 µg/mL (≈ 0.515 µM); in data set [3] (setting [10]) it was less than 0.05 µg/mL; in [4] (setting [13]), 0.2 µg/mL (≈ 0.264 µM). This compound displayed an LD50 in “LD50, Probit method” of more than 4000 mg/kg. Besides, the ED50 was determined as 1.28 mg/kg in the data set on Enterobacter 8 (setting [14]); 0.5 mg/kg in the data set on Serratia marcescens 274 (setting [11]); 52 mg/kg in [5] (setting [15]); 15.9 mg/kg in the data set on Staphylococcus aureus 58; 1.59 mg/kg in the data set with Escherichia coli 67; 0.55 mg/kg in [6] (setting [16]).
With `Cc1cc(SCC2=C(C(=O)O)N3C(=O)[C@@H](NC(=O)/C(=N\OCc4ccc(O)c(O)c4C(=O)O)c4csc(N)n4)[C@H]3SC2)n2nc(C(=O)O)nc2n1` [Compound 4, (6R,7R)-7-[2-(2-amino-4-thiazolyl)-2-[Z-[(2-carboxy-3,4-dihydroxyphenyl)methyl]oxyimino]acetamido]-3-[(2-carboxy-5-methyl-s-triazolo[1,5-a]pyrimidin-7-yl)thiomethyl]-8-oxo-5-thia-1-azabicyclo[4.2.0]oct-2-ene-2-carboxylic acid], the MIC in [8] was determined as 3.13 µg/mL (≈ 4.13 µM); in [1], 0.39 µg/mL (≈ 0.515 µM); in [2] (setting [9]), 0.39 µg/mL (≈ 0.515 µM); in [3] (setting [10]), 0.05 µg/mL (≈ 0.066 µM). The compound also returned a 50% lethal dose (LD50) in the data set “LD50, Probit method” of more than 4000 mg/kg. Besides, the ED50 in the data set with Staphylococcus aureus 4 is 3.35 mg/kg; in the data set on Serratia marcescens 274 (setting [11]), 0.97 mg/kg; in [7] (setting [12]), 50.6 mg/kg.
Turning to `Cc1cc(SCC2=C(C(=O)O)N3C(=O)[C@@H](NC(=O)/C(=N\OCc4cc(O)c(O)c(C(=O)O)c4)c4csc(N)n4)[C@H]3SC2)n2nc(C(=O)O)nc2n1` [Compound 3, (6R,7R)-7-[2-(2-amino-4-thiazolyl)-2-[Z-[(3-carboxy-4,5-dihydroxyphenyl)methyl]oxyimino]acetamido]-3-[(2-carboxy-5-methyl-s-triazolo[1,5-a]pyrimidin-7-yl)thiomethyl]-8-oxo-5-thia-1-azabicyclo[4.2.0]oct-2-ene-2-carboxylic acid], the MIC in [8] worked out at 6.25 µg/mL (≈ 8.25 µM); in data set [1], 0.78 µg/mL (≈ 1.03 µM); in data set [2] (setting [9]), 0.78 µg/mL (≈ 1.03 µM); in data set [3] (setting [10]) it was 0.1 µg/mL (≈ 0.132 µM). Besides, the LD50 in the data set “LD50, Probit method” was more than 4000 mg/kg. Besides, the ED50 in the data set on Staphylococcus aureus 4 was 2.08 mg/kg; in the data set with Serratia marcescens 274 (setting [11]) it was 0.72 mg/kg; in data set [7] (setting [12]), 46.8 mg/kg.
